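Five concentrations, 48 hours, 96-well plates. TGI: concentration producing complete growth inhibition.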
Key:
Test in all cases: DTP human tumour cell line panel, 48 h
[1] = tested on: SR leukemia
[2] = tested on: SF-268 CNS
[3] = tested on: SK-OV-3 ovarian
[4] = tested on: HCT-15 colon

SMILES | TGI [1] | TGI [2] | TGI [3] | TGI [4]
CCN(CC)C(=S)SS(=O)(=O)c1ccccc1[N+](=O)[O-] | > 42.6 µM | > 100 µM | > 100 µM | > 100 µM
CC(=O)OCC(OC(C)=O)C(OC(C)=O)C(OC(C)=O)C(/C=N\Nc1nc2ccccc2c(=O)[nH]1)=N/Nc1nc2ccccc2c(=O)[nH]1 (stereo unspecified) | > 100 µM | > 100 µM | > 100 µM | > 100 µM
CN(C)Cc1cc(N=Nc2ccc(Cl)cc2)ccc1O | 39.8 µM | 34.4 µM | 33.8 µM | 29.1 µM
COC(=O)[C@@H]1Cc2cc(O)c(O)cc2C2(CCN(C)CC2)O1 | > 10 µM | > 10 µM | > 10 µM | > 10 µM
N#CCCN(CCC#N)c1ccc(C(N=Nc2ccc(Cl)cc2)=Nc2ccc(F)cc2)cc1 | > 100 µM | > 100 µM | > 100 µM | > 100 µM
O=C1CN(c2ccc(Cl)cc2)C(=O)CN1NCNN1CC(=O)N(c2ccc(Cl)cc2)CC1=O | > 100 µM | > 100 µM | > 100 µM | > 100 µM
O=C(Nn1cnn2c(=O)c3ccccc3nc2c1=O)c1ccccc1 | > 100 µM | > 100 µM | > 100 µM | > 100 µM
COC(=O)c1c2c(cc3c1CC1(Cc4cc5c(cc4C1)CCC5)C3)CCC2 | > 100 µM | > 100 µM | > 100 µM | > 100 µM
COC(=O)c1c(C(=O)OC)c2c3ccccc3n(C)c2c2c1c1ccccc1n2C | > 100 µM |  | > 100 µM | > 100 µM
CC(Oc1ccccc1Cl)C(=O)NN1C(=O)CSC1c1ccc(Cl)cc1 (stereo unspecified) | 22.9 µM | 47.6 µM | 39.7 µM | 43.8 µM
CN(C)CCCNC(=O)c1cc(NC(=O)c2cc(NC(=O)[C@@H]3C[C@H]3C(=O)Nc3cc(C(=O)Nc4cc(C(=O)NCCCN(C)C)n(C)c4)n(C)c3)cn2C)cn1C | > 100 µM | > 100 µM |  | 
COc1ccc2nc3n(c2c1)C(c1c(Cl)cccc1Cl)SC3 (stereo unspecified) | > 100 µM |  | > 100 µM | > 100 µM
NC(N)=NS(=O)(=O)c1ccc(NC(=O)c2ccc3[nH]c4ccccc4c(=O)c3c2)cc1 | > 100 µM | > 100 µM | > 100 µM | > 100 µM
O=C(NNC(=S)NCc1ccccc1)C12CC3CC(CC(C3)C1)C2 | > 100 µM | > 100 µM | > 100 µM | > 100 µM
Cc1cc(C)n(C(=O)CSc2nnc(SCC(=O)n3nc(C)cc3C)s2)n1 | > 100 µM | > 100 µM | > 100 µM | > 100 µM
CCCCCCCCCc1c(O)c(O)c(CCCCCCCCC)c(CCCCCCCCC)c1CCCCCCCCC |  | > 100 µM | > 100 µM | > 100 µM
C=C1CC(CN2CCC(=O)NC2=O)(c2ccccc2)OC1=O (stereo unspecified) | 5.26 µM | 50.4 µM | 30.4 µM | 18.5 µM
CC(O[Si](c1ccccc1)(c1ccccc1)C(C)(C)C)[C@H](NC(=O)OC(C)(C)C)C(=O)O (stereo partly specified) | 90.2 µM | > 100 µM | > 100 µM | 79.7 µM
CCC(=O)NCCc1c2c3c(ccnc3c3ncsc13)-c1ccccc1N2 |  | > 100 µM | > 100 µM | > 100 µM
O=C(O)C12C3CCC(O3)C1(C(=O)O)C1CCC2O1 (stereo unspecified) |  | > 100 µM | > 100 µM | > 100 µM
Cn1c(=O)oc2cc(Br)ccc21 | > 100 µM | > 100 µM | > 100 µM | > 100 µM
C=CCn1cnc2c(=O)[nH]c(Nc3ccccc3)nc21 | > 100 µM | > 100 µM | > 100 µM | > 100 µM
COc1ccc(/C=C2/CCS(=O)(=O)c3ccc(C)cc3C2=O)cc1OC | 58.1 µM | > 100 µM | > 100 µM | 20.3 µM
COc1cc(C23OCC(Cc4cc5c(cc42)OCO5)C3CO)cc(OC)c1OC (stereo unspecified) | > 100 µM | > 100 µM | > 28.8 µM | > 100 µM
O=C(CN(c1ccc(S(=O)(=O)O)cc1)c1ccc(S(=O)(=O)O)cc1)Nn1cnc2ccc(S(=O)(=O)N(c3ccc(S(=O)(=O)O)cc3)c3ccc(S(=O)(=O)O)cc3)cc2c1=O | > 100 µM | > 100 µM | > 100 µM | > 100 µM
COc1ccccc1NC(=S)Nc1cc(C)ccn1 | > 100 µM | > 100 µM | > 100 µM | > 100 µM
CC(C)(C)NC(=O)C12C3C4C1C1C2C3C41C(=O)NC(C)(C)C (stereo unspecified) | > 100 µM | > 100 µM |  | > 100 µM
COc1ncnc2c1cnn2Cc1cn(CCCCO)nn1 | > 100 µM | > 100 µM | > 100 µM | > 100 µM

SMILES | TGI [1] | TGI [2] | TGI [3] | TGI [4]
Nc1c(N2CCCCC2)c(=O)nc2[nH]/c(=C\c3ccccc3)c(=O)n12 | > 100 µM | > 100 µM | > 100 µM | > 100 µM
O=C1/C(=C/c2cccs2)NC(=S)N1CN1CCCC(CO)C1 (stereo unspecified) | > 100 µM | > 100 µM | > 100 µM | > 100 µM
CN1C(=O)C23CCCCC2CC1(c1ccccc1)S3 (stereo unspecified) | > 100 µM | > 100 µM | > 100 µM | > 100 µM
CCOC(=O)c1[nH]c2nc(SC)nc(Nc3ccccc3Cl)c2c1N |  | 60.9 µM | 56.7 µM | > 100 µM
c1ccc(C2=Nc3cccc4cccc(c34)N2)cc1 | 52.9 µM | > 90.6 µM | > 100 µM | > 96.1 µM
COc1cccc2cc(C(=O)Nc3ccccn3)c(=N)oc12 | 16.5 µM | > 100 µM | > 100 µM | > 100 µM
O=[N+]([O-])c1nccn1CCCNCCCn1ccnc1[N+](=O)[O-] | > 100 µM | > 100 µM | > 100 µM | > 100 µM
O=C(O)CCC(NC(=O)c1ccc(CNc2nc3ccccc3nc2C(=O)O)cc1)C(=O)O (stereo unspecified) | > 100 µM | > 100 µM | > 100 µM | > 100 µM
COC1(CC[C@H](C)COC2OC(CO)C(O)C(O)C2O)O[C@H]2C[C@H]3[C@@H]4CC=C5C[C@@H](OC6OC(CO)C(O)C(OC7OC(CO)C(O)C(O)C7O)C6OC6OC(C)C(O)C(O)C6O)CC[C@]5(C)[C@H]4CC[C@]3(C)[C@H]2[C@@H]1C (stereo partly specified) | > 100 µM | 15.2 µM | 24.5 µM | 7.43 µM
CC1(C)CN=C(Nc2ccc(F)c(F)c2)S1 | > 100 µM | > 100 µM | > 100 µM | > 100 µM
COc1ccc2c(CCNS(=O)(=O)c3ccccc3)c(C(C)=O)[nH]c2c1 | > 100 µM | > 100 µM | > 100 µM | > 100 µM
CC(=O)N=C1N(/C=C2\C(=O)Oc3ccccc3C2=O)C(=O)/C(=C/c2ccccc2Cl)N1C | > 100 µM | > 100 µM | > 100 µM | > 100 µM
CC(=O)Oc1c(C)c2c(c3ccccc13)OC(C)(C)C2 | 52.8 µM | 28.8 µM | 66.3 µM | 30.6 µM
C=C1CC(COc2ccc3c(C)cc(=O)oc3c2)(c2ccccc2)OC1=O (stereo unspecified) | > 31.6 µM | 23.9 µM | 14.9 µM | 3.62 µM
O=[N+]([O-])c1sc2ccc(Cl)cc2c1Nc1ccc(Cl)cc1 |  | > 100 µM | > 100 µM | > 100 µM
N#Cc1c(-c2ccccc2)c(C#N)c(=O)n(C2OC(CO)C(O)C(O)C2O)c1S (stereo unspecified) | > 100 µM | > 100 µM | > 100 µM | > 100 µM
O=S(=O)(OI(O)CC(F)(F)F)C(F)(F)F | > 100 µM | > 100 µM | > 100 µM | > 100 µM
O=[N+]([O-])c1cccc2nc3ccccc3c(NCCCN3CCCCC3)c12 |  | 0.199 µM | 0.1 µM | 0.109 µM
N#Cc1c(N)c(C#N)c2c(c1-c1ccc(Cl)cc1)COc1ccccc1-2 | 26.3 µM | > 100 µM | 36.9 µM | > 100 µM
BrCC(Br)(c1ccccc1)c1ccccc1-c1cc(-c2ccccc2)cc(-c2ccccc2)n1 (stereo unspecified) | > 52.7 µM | 8.5 µM |  | 30 µM
O=c1[nH]c(=O)n(C/C=C/CBr)nc1Br | 14.1 µM | 28.5 µM |  | 27.9 µM
O=C(Nc1nc(C23CC4CC(CC(C4)C2)C3)cs1)c1cc2c(ccc3ccccc32)oc1=O | > 100 µM | > 100 µM |  | > 100 µM
O=C(N/N=C(/COc1cccc(Cl)c1)N=Cc1cccnc1)c1ccncc1 |  | > 100 µM | > 100 µM | > 100 µM
C[C@]12CC/C(=N\OCCN3CCCCC3)C=C1CCC1C2CC[C@@]2(C)C1CC[C@]2(C)O (stereo partly specified) |  | 31 µM | 35 µM | 27.6 µM
COC(=O)C(=O)C(C(=O)C(=O)Nc1ccc(C)cc1)c1nc2ccc(C(=O)c3ccccc3)cc2[nH]c1=O (stereo unspecified) |  | > 100 µM | > 100 µM | > 100 µM
CC(=O)O[C@@H]1O[Si](C(C)(C)C)(C(C)(C)C)[C@H](C)[C@H]1C | > 100 µM |  | > 100 µM | > 100 µM
NC(=S)NS(=O)(=O)c1ccc(F)cc1F |  | > 100 µM | > 100 µM | > 100 µM
